Values quoted from earlier work as cited in patent US20100286187A1, “METHOD OF PREDICTING SURVIVAL OF A NON-SMALL-CELL LUNG CANCER PATIENT TO A CHEMOTHERAPEUTIC TREATMENT” (PANGAEA BIOTECH S.A., priority 2006, published 2010).

Experiments:
[1] = system: non-small cell lung cancer (NSCLC); conditions: randomized study, per arm
[2] = system: non-small cell lung cancer (NSCLC) patients; conditions: single agent, previously untreated NSCLC patients

| Molecule | Median survival [1] [months] | Response rates [2] |
| --- | --- | --- |
| paclitaxel/carboplatin | 8.2 |  |
| CC(=O)O[C@@]12CO[C@@H]1C[C@H](O)[C@@]1(C)C(=O)[C@H](O)C3=C(C)[C@@H](OC(=O)[C@H](O)[C@@H](NC(=O)OC(C)(C)C)c4ccccc4)C[C@@](O)([C@@H](OC(=O)c4ccccc4)[C@H]21)C3(C)C [Docetaxel] |  | 21-38% |
